For one experiment, the system named is Utrophin A promoter linked to a luciferase reporter gene. Description: Luciferase reporter assay (murine H2K cells), H2K/mdx/Utro A reporter cell line. It counts as cell-based. Particulars: 48 h; test compound concentration 0.3 μM; mdx mouse H2K Utrophin A reporter cells; read-out: Activity (luciferase level relative to control). The method, then: Luciferase Reporter Assay (Murine H2K Cells)
The cell line used for the screen is an immortalized mdx mouse H2K cell line that has been stably transfected with a plasmid containing ≈5 kb fragment of the Utrophin A promoter including the first untranslated exon linked to a luciferase reporter gene.
Under conditions of low temperature and interferon containing media, the cells remain as myoblasts. These are plated into 96 well plates and cultured in the presence of compound for three days. The level of luciferase is then determined by cell lysis and reading of the light output from the expressed luciferase gene utilising a plate luminometer.
Luciferase Assay for 96 Well Plates
The H2K/mdx/Utro A reporter cell line cells were plated out into 96 well plates (Falcon 353296, white opaque) at a density of approximately 5000 cells/well in 190 μl normal growth medium. The plates were then incubated at 33° C. in the presence of 10% CO2 for 24 hrs.
Compounds were dosed by adding 10 μl of diluted compound to each well giving a final concentration of 10 μM (where a different final concentration was required, the amount of compound solution added was amended accordingly). The plates were then incubated for a further 48 hrs. Cells were then lysed in situ following the manufacture's protocols (Promega Steady-Glo Luciferase Assay System(E2520). Then counted for 10 seconds using a plate luminometer (Victor1420).
Compounds for screening were stored at −20° C. as 10 mM stocks in 100% DMSO until required.
Biological activity as assessed using the luciferase reporter assay in murine H2K cells, and the results are shown in Table 1, which also lists the concentration of the test compound solution in μM.
Consider `O=C(Nc1ccc2c(c1)OCO2)c1nn(Cc2ccc3ccccc3c2)c2ccccc12` [Compound 141, N-(benzo[d][1,3]dioxol-5-yl)-1-(naphthalen-2-ylmethyl)-1H-indazole-3-carboxamide], for which the activity at 0.3 µM is under 200%. Still for that read-out and setting: for `CS(=O)(=O)c1ccc(Cn2nc(CNc3ccc4c(c3)OCO4)c3ccccc32)cc1` [Compound 90, N-((1-(4-(methylsulfonyl)benzyl)-1H-indazol-3-yl)methyl)benzo[d][1,3]dioxol-5-amine] the value was under 200%.

The same experiment, now with this note: 48 h; test compound concentration 1 μM; mdx mouse H2K Utrophin A reporter cells; read-out: Activity (luciferase level relative to control).
On to `CS(=O)(=O)c1ccc(Cn2nc(C(=O)Nc3ccc4c(c3)OCO4)c3c2CCC3)cc1` [Compound 150, N-(benzo[d][1,3]dioxol-5-yl)-1-(4-(methylsulfonyl)benzyl)-1,4,5,6-tetrahydrocyclopenta[c]pyrazole-3-carboxamide], for which the activity at 1 µM was under 200%.

The same experiment, now with this note: 48 h; test compound concentration 10 μM; mdx mouse H2K Utrophin A reporter cells; read-out: Activity (luciferase level relative to control).
In the case of `O=C(Nc1ccc2c(c1)OCO2)c1nn(Cc2ccncc2)c2ccccc12` [Compound 97, N-(benzo[d][1,3]dioxol-5-yl)-1-(pyridin-4-ylmethyl)-1H-indazole-3-carboxamide], the activity at 10 µM was under 200%. Consider `Cc1ccc(NC(=O)Nc2nn(Cc3ccc(COc4ccc5c(c4)OCO5)cc3)c3ccc(C(F)(F)F)cc23)cc1` [Compound 57, 1-(1-(4-((benzo[d][1,3]dioxol-5-yloxy)methyl)benzyl)-5-(trifluoromethyl)-1H-indazol-3-yl)-3-p-tolylurea], for which the activity at 10 µM was under 200%. For the compound `CCCc1ccc(NC(=O)c2nn(Cc3ccc(S(C)(=O)=O)cc3)c3ccccc23)cc1` [Compound 112, 1-(4-(methylsulfonyl)benzyl)-N-(4-propylphenyl)-1H-indazole-3-carboxamide], the activity at 10 µM lay in the range of 201 to 300%. As for `NC(=O)c1ccc(NC(=O)c2nn(Cc3ccc(C(=O)N4CCOCC4)cc3)c3ccccc23)cc1` [Compound 38, N-(4-carbamoylphenyl)-1-(4-(morpholine-4-carbonyl)benzyl)-1H-indazole-3-carboxamide], the activity at 10 µM was 201 to 300%. For `CC(C)c1cccc(NC(=O)c2nn(Cc3ccc(S(C)(=O)=O)cc3)c3ccccc23)c1` [Compound 96, N-(3-isopropylphenyl)-1-(4-(methylsulfonyl)benzyl)-1H-indazole-3-carboxamide], the activity at 10 µM was under 200%. Regarding `CS(=O)(=O)c1ccc(Cn2nc(C(=O)Nc3ccc(S(C)(=O)=O)cc3)c3ccccc32)cc1` [Compound 101, 1-(4-(methylsulfonyl)benzyl)-N-(4-(methylsulfonyl)phenyl)-1H-indazole-3-carboxamide], the activity at 10 µM is under 200%.

`O=C(Nc1ccc2c(c1)OCO2)c1nn(CCOc2ccccc2)c2ccccc12` [Compound 58, N-(benzo[d][1,3]dioxol-5-yl)-1-(2-phenoxyethyl)-1H-indazole-3-carboxamide]: the activity at 10 µM lay in the range of 201 to 300%. `CCn1ccc(C(=O)Nc2ccc(Cl)cc2Cl)n1` [Compound 147, N-(2,4-dichlorophenyl)-1-ethyl-1H-pyrazole-3-carboxamide]: the activity at 10 µM was under 200%. `CCN(CC)S(=O)(=O)c1ccc(Cn2nc(C(=O)Nc3ccc4c(c3)C(=O)N(C)C4=O)c3ccccc32)cc1` [Compound 41, 1-(4-(N,N-diethylsulfamoyl)benzyl)-N-(2-methyl-1,3-dioxoisoindolin-5-yl)-1H-indazole-3-carboxamide]: the activity at 10 µM is under 200%. As for `CC(C)(C)c1ccc(NC(=O)c2nn(Cc3ccc(S(C)(=O)=O)cc3)c3ccccc23)cc1` [Compound 81, N-(4-tert-butylphenyl)-1-(4-(methylsulfonyl)benzyl)-1H-indazole-3-carboxamide], the activity at 10 µM is under 200%. With `CS(=O)(=O)c1ccc(Cn2nc(C(=O)Nc3ccc4c(c3)CS(=O)(=O)C4)c3ccccc32)cc1` [Compound 113, N-(1,3-dihydrobenzo[c]thiophen-2,2-dioxy-5-yl)-1-(4-(methylsulfonyl)benzyl)-1H-indazole-3-carboxamide], the activity at 10 µM was under 200%.

Consider `CC(C)c1ccc(NC(=O)c2nn(Cc3ccc(-c4ccccc4)cc3)c3ccccc23)cc1` [Compound 27, 1-(biphenyl-4-ylmethyl)-N-(4-isopropylphenyl)-1H-indazole-3-carboxamide], for which the activity at 10 µM was under 200%. As to `CON(C)S(=O)(=O)c1ccc(Cn2nc(C(=O)Nc3nc4ccccc4s3)c3ccccc32)cc1` [Compound 1, N-(benzo[d]thiazol-2-yl)-1-(4-(N-methoxy-N-methylsulfamoyl)benzyl)-1H-indazole-3-carboxamide], the activity at 10 µM is under 200%.

In the case of `COc1cccc(OCc2ccc(Cn3nc(NC(=O)Nc4ccc(OC)c(OC)c4)c4ccccc43)cc2)c1` [Compound 54, 1-(3,4-dimethoxyphenyl)-3-(1-(4-((3-methoxyphenoxy)methyl)benzyl)-1H-indazol-3-yl)urea], the activity at 10 µM was under 200%.

Regarding `CS(=O)(=O)c1ccc(Cn2nc(C(=O)Nc3ccc(F)cc3)c3ccccc32)cc1` [Compound 94, N-(4-fluorophenyl)-1-(4-(methylsulfonyl)benzyl)-1H-indazole-3-carboxamide], the activity at 10 µM is under 200%. The same measure, in the same setting: for `CCc1ccc(Cn2nc(C(=O)Nc3ccc4c(c3)OC(F)(F)C(F)(F)O4)c3ccccc32)cc1` [Compound 159, 1-(4-ethylbenzyl)-N-(2,2,3,3-tetrafluoro-2,3-dihydrobenzo[b][1,4]dioxin-6-yl)-1H-indazole-3-carboxamide] the value was under 200%; for `Cc1cccc(NC(=O)Nc2nn(Cc3ccc(COc4ccc5c(c4)OCO5)cc3)c3ccc(C(F)(F)F)cc23)c1` [Compound 51, 1-(1-(4-((benzo[d][1,3]dioxol-5-yloxy)methyl)benzyl)-5-(trifluoromethyl)-1H-indazol-3-yl)-3-m-tolylurea], under 200%.

Regarding `CC(C)(C)c1ccc(Cn2nc(C(=O)Nc3ccc4c(c3)OCO4)c3ccccc32)cc1` [Compound 42, N-(benzo[d][1,3]dioxol-5-yl)-1-(4-tert-butylbenzyl)-1H-indazole-3-carboxamide], the activity at 10 µM was over 401%. Take `CS(=O)(=O)c1ccc(Cn2nc(C(=O)Nc3ccc4c(c3)CCCC4)c3ccccc32)cc1` [Compound 121, 1-(4-(methylsulfonyl)benzyl)-N-(5,6,7,8-tetrahydronaphthalen-2-yl)-1H-indazole-3-carboxamide]: the activity at 10 µM is 201 to 300%. The same measure, in the same setting: next, `CS(=O)(=O)c1ccc(Cn2cc(C(=O)Nc3ccc4c(c3)OCO4)c3ccccc32)cc1` [Compound 146, N-(benzo[d][1,3]dioxol-5-yl)-1-(4-(methylsulfonyl)benzyl)-1H-indole-3-carboxamide]: under 200%. On to `CC(C)c1ccc(NC(=O)c2nn(Cc3ccc(S(C)(=O)=O)cc3)c3ccccc23)cc1` [Compound 62, N-(4-isopropylphenyl)-1-(4-(methylsulfonyl)benzyl)-1H-indazole-3-carboxamide], for which the activity at 10 µM was in the range of 301 to 400%. On to `CCN(CC)S(=O)(=O)c1ccc(Cn2nc(C(=O)Nc3ccc(N4CCCCC4)cc3)c3ccccc32)cc1` [Compound 10, 1-(4-(N,N-diethylsulfamoyl)benzyl)-N-(4-(piperidin-1-yl)phenyl)-1H-indazole-3-carboxamide], for which the activity at 10 µM was in the range of 201 to 300%. `CCc1ccc(NC(=O)c2nn(Cc3ccc(S(C)(=O)=O)cc3)c3ccccc23)cc1` [Compound 84, N-(4-ethylphenyl)-1-(4-(methylsulfonyl)benzyl)-1H-indazole-3-carboxamide]: the activity at 10 µM was in the range of 301 to 400%. On to `CS(=O)(=O)c1ccc(Cn2nc(C(=O)Nc3ccc(C4CCCCC4)cc3)c3ccccc32)cc1` [Compound 122, N-(4-cyclohexylphenyl)-1-(4-(methylsulfonyl)benzyl)-1H-indazole-3-carboxamide], for which the activity at 10 µM lay within 201 to 300%.

For `COc1ccc(NC(=O)c2nn(Cc3ccc(-c4ccccc4)cc3)c3ccccc23)cc1` [Compound 74, 1-(biphenyl-4-ylmethyl)-N-(4-methoxyphenyl)-1H-indazole-3-carboxamide], the activity at 10 µM is under 200%. As for `COc1ccccc1CNC(=O)Nc1nn(Cc2cc3c(cc2Cl)OCO3)c2ccccc12` [Compound 78, 1-(1-((6-chlorobenzo[d][1,3]dioxol-5-yl)methyl)-1H-indazol-3-yl)-3-(2-methoxybenzyl)urea], the activity at 10 µM is under 200%.

Turning to `CS(=O)(=O)c1ccc(Cn2nc(C(=O)Nc3ccc4c(c3)CCC4)c3ccccc32)cc1` [Compound 130, N-(2,3-dihydro-1H-inden-5-yl)-1-(4-(methylsulfonyl)benzyl)-1H-indazole-3-carboxamide], the activity at 10 µM was in the range of 201 to 300%. As to `COc1cccc(OCc2ccc(Cn3nc(NC(=O)Nc4ccccc4OC(F)(F)F)c4ccccc43)cc2)c1` [Compound 68, 1-(1-(4-((3-methoxyphenoxy)methyl)benzyl)-1H-indazol-3-yl)-3-(2-(trifluoromethoxy)phenyl)urea], the activity at 10 µM is under 200%.

Still in this experiment, the particulars now being: 48 h; test compound concentration 30 μM; mdx mouse H2K Utrophin A reporter cells; read-out: Activity (luciferase level relative to control).
On to `CS(=O)(=O)c1ccc(Cn2ccc(C(=O)Nc3ccc4c(c3)OCO4)n2)cc1` [Compound 148, N-(benzo[d][1,3]dioxol-5-yl)-1-(4-(methylsulfonyl)benzyl)-1H-pyrazole-3-carboxamide], for which the activity at 30 µM was under 200%.
